# Assay results taken from patent US12642274B2, “Insect neuropeptides 8” (Solasta Bio Limited, priority 2023, dated 2026).
# Square brackets hold non-standard residues; d marks the D form. pGlu = O=C1CC[C@@H](C(=O)O)N1
# How the values were obtained:
# Spodoptera frugiperda = experiment: Lepidoptera artificial diet assay; assay type: in vivo; conditions: unformulated peptide 1×10^−4M in artificial diet, L1 larvae, one larva per cell, n=10, 168 hrs; compared to negative control vehicle and DDT (FIG. 4)
# From the text: Frontier Lepidoptera Artificial diet was made up by preparing agar at 1% and then mixing it with artificial diet powder. Peptide solution was aliquoted in 10 cells and diet poured straight onto it. The final concentration of the peptide was 1×10^−4M, and each peptide was aliquoted in 10 cells. Once the dict solidified and cooled down, one L1 Spodoptera frugiperda larvae was infested in each cell. The trays were sealed with heat and let larva were allowed to develop for 168 hrs. Finally, pupation and mortality were scored for. Lepidoptera artificial diet assays were performed with SB-P-86, and compared to a negative control vehicle and the insecticide dichlorodiphenyltrichloroethane (DDT).
# Plutella xylostella = experiment: Leaf dip assay (IRAC method 018, Chinese cabbage); assay type: in vivo; conditions: unformulated peptide 2×10^−4 M in 0.5% DMSO, 8% ACN, 0.1% Tween-80 in water, 120 hours; Acetamiprid 0.005% as comparator; conducted by FERA (FIG. 5)
# Description: Peptides were tested in a leaf dip bioassay using Chinese cabbage on IRAC method 018 against Plutella xylostella. Peptide concentration at 2×10^−4 M in a solution of 0.5% DMSO, 8% ACN, 0.1% Tween-80 in water. Acetamiprid (pesticide) was tested at 0.005%. Vehicle control comprised 0.5% DMSO, 8% ACN, 0.1% Tween-80 in water. Peptide SB-P-86 was tested by a Contract Research Organisation, FERA Science Ltd. The activity of SB-P-86 is shown in FIG. 5; SB-P-86 has good activity whilst being eco-friendly and targeted to specific pests unlike broad spectrum chemical insecticides such as Acetamiprid.
substance,measurement,setting,value
"[Pyr]-LTFTSSWGG-[NH2] ([pGlu]LTFTSSWGG-NH2; SMILES CC(C)C[C@H](NC(=O)[C@@H]1CCC(=O)N1)C(=O)N[C@H](C(=O)N[C@@H](Cc1ccccc1)C(=O)N[C@H](C(=O)N[C@@H](CO)C(=O)N[C@@H](CO)C(=O)N[C@@H](Cc1c[nH]c2ccccc12)C(=O)NCC(=O)NCC(N)=O)[C@@H](C)O)[C@@H](C)O) [SB-P-86, AKH peptide according to the invention]",activity (pupation and mortality scored),Spodoptera frugiperda,much higher activity
same,activity (leaf dip bioassay),Plutella xylostella,good activity
